Results: US9216181B2 (Southwest Research Institute, priority 2011, dated 2015)

What was measured:
BMP-2 [1] = assay: Real time PCR of BMP-2 gene expression in human MSC (Cells-to-Ct); type: cell-based; conditions: BMP-2 mRNA, hMSC, 5-10 μM, 24 hours, vs untreated; BIOMOL library (Table 2)
Procedure: Early passage human mesenchymal stem cells (MSC) were thawed from one frozen cryo-vial and seeded into two T-75 tissue culture flasks and incubated at 37° C. for 48 hours in Alpha MEM with 10% FBS. After three days and one re-feeding, the cells were trypsinized and re-suspended in pre-warmed media at 5×10^4 cells/mL to provide 5,000 cells per well in a 96 well plate and incubated overnight at 37° C. in 5% CO2.
Each well was washed in cold PBS, lysed at room temperature for five minutes, and stop reagent added to each well to stop the lysis reaction. The final lysate was kept cold at 4° C. and used immediately as the RNA template for the reverse transcription cDNA synthesis following the TAQMAN GENE EXPRESSION CELLS TO CT KIT instructions.
The cDNA synthesis was prepared on a separate sterile 96-well PCR plate and performed on the Step One Plus Real Time PCR System instrument (Applied Biosystems) with the programming set at 37° C. for 60 minutes and an inactivation hold of 95° C. for five minutes. The final cDNA reaction was kept cold and used as the template for the TAQMAN GENE Real-Time PCR step following the recommended instructions for TAQMAN GENE EXPRESSION CELLS TO CT KIT assay. […] Template cDNA's were added separately to respective individual wells in replicate samples.
The PCR was performed on the STEPONEPLUS Real-Time System instrument (Applied Biosystems). The amplification program consisted of 1 cycle of 95° C. with 10 minute hold (hot start) and followed by 50 cycles of 95° C. with 15-second annealing hold and 1-minute 60° C. specified acquisition hold.

BMP-2 [2] = assay: Study II real time PCR, BMP-2 up-regulation in mesenchymal stem cells; type: cell-based, human; conditions: hMSC; for BMP-2 Fold Increase/Dose / BMP-2 fold increases (in words): 24 hour
Procedure: (§1) The testing procedure follows.
(§2) Cells based assays are done using 6 wells tissue culture plates, seeded with human mesenchymal stem cells (MSC) from Lonza, culture at 80% density. After seeding cells are treated with selected compounds at 10 μM, 5 μM and 2.5 μM for a 24 hour period, mRNA is collected using Qiagen kit RNAeasy kit and cDNA is prepared with same Qiagen kit, RT-PCR is done using kit from SABiosciences to measure gene expression for BMP2, 4 and 7 and run in Applied Biosystems Step One Plus. The protocol for mRNA isolation is described below.
(§3) Human mesenchymal stem cell growth medium passage 3 plated in a 6 well plate at 2.5×10^5 cells/well in hMSC Basal Medium+BulletKit (50 ml Growth Supplement, 10 ml L-Glutamine and 0.5 ml Gentamicin Sulfate Amphotericin-B) for 24 hrs. The compounds to be tested were added and after 24 hrs the media was aspirated, rinsed well once with PBS, and aspirated again. 350 ul of Lysis Buffer was added and the cells were stored at −20° C.
(§4) The lysate was homogenized by pipetting the lysate directly into a QIA shredder spin column placed in a 2-mL collection tube, and centrifuge for 2 min at full speed. 70% ethanol was added (1 vol. or […]) to the homogenized lysate (now at the bottom of the collection tube), and mixed well by pipetting. Up to 700 μL of the sample was transferred, including any precipitate that may have formed, to an RNeasy spin column placed in a 2-mL collection tube. This was centrifuged for 15 seconds at full speed. 700 μL of Buffer RW1 was added to the RNeasy spin column. This was centrifuged for 15 seconds at full speed to wash the spin column membrane.
(§5) 500 μL of Buffer RPE was added to the RNeasy spin column and centrifuged for 15 seconds at full speed. The flow through was discarded. 500 μL of Buffer RPE was added to the RNeasy spin column and centrifuged for 2 minutes at full speed to wash the spin column membrane. The RNeasy spin column was removed from the collection tube and the flow-through was discarded.
(§6) The RNeasy spin column was placed in a new 2-mL collection tube and centrifuged for 1 minute at full speed. The RNeasy spin column was removed from the collection tube, and the flow-through was discarded. The RNeasy spin column was placed in a new 1.5-mL collection tube. 30-50 μL of RNase-free water was added directly to the spin column membrane and this was centrifuged for 1 minute at full speed to elute the RNA.

BMP-7 = assay: Study II real time PCR, BMP-7 up-regulation in mesenchymal stem cells; type: cell-based, human; conditions: hMSC
Procedure: as §1, §2, §3, §4, §5, §6

BMP-4 = assay: Study II real time PCR, BMP-4 up-regulation in mesenchymal stem cells; type: cell-based, human; conditions: hMSC, 24 hour, 2.5, 5 and 10 μM tested
Procedure: as §1, §2, §3, §4, §5
The RNeasy spin column was placed in a new 2-mL collection tube and centrifuged for 1 minute at full speed. […]

BMP2 = assay: Quantitative PCR (TaqMan, ΔΔCt) of BMP2 in human mesenchymal stem cells; type: cell-based; conditions: Homo sapiens, Mesenchymal stem cells; BMP2 mRNA, hMSC, 10 μM, vs untreated, 18S reference; BIOMOL library (Table 2); read-out: q-PCR Fold increase
Procedure: Human mesenchymal stem cells (LONZA, Catalog PT2501) were maintained in Mesenchymal stem cells basal media (MSCBM CAT#PT-3238). Early passage cells were plated in triplicate at 2×10^4 cells/cm^2 using six well tissue culture plates and grown in humidified 5% CO2 at 37° C. for 24 hours. Spent media was replaced by assay media of drugs to be tested in same media as above at 10 μM final concentration. Untreated cells were used as the control group. Total RNA were prepared using either TRI Reagent (Ambion, Cat. 9738), for subsequent TaqMan gene expression qPCR of BMP2. RNA concentration and integrity was assessed by absorbance 260/280 and electrophoresis in 1% Agarose with formaldehyde loading dye. For TaqMan gene expression, cDNA was synthesized from 2 μg of total RNA using the High Capacity cDNA Reverse Transcription Kit (Applied Biosystems, Cat. 4368814). The resulting cDNA were diluted 1:100 for TaqMan and amplified by real-time quantitative PCR. Gene-specific fluorescent labeled TaqMan primers for FAM-BMP2 (Applied Biosystems, Hs00154192.m1) and TaqMan reference VIC-18S ribosomal RNA (Applied Biosystems, 4310893E) were used to target gene of interest. A cocktail of universal master mix (Applied Biosystems, 4369016) were prepared individually for both set of primers which contained Taq Polymerase, dNTPs, and buffer. Template cDNA's were added separately to respective individual wells in triplicate samples. The PCR were performed on StepOne Plus Real Time System instrument (Applied Biosystems). The amplification program consisted of 1 cycle of 95° C. with 10 minute hold (hot start) followed by 50 cycles of 95° C. with 15 second annealing hold and 1 minute 60° C. specified acquisition hold. The Ct value of endogenous reference gene (i.e. 18 s) was used to control for input RNA and then used to normalize target gene (i.e. BMP2) tested from the same cDNA sample to calculate the Δ Ct, and then calibrated to an internal reference sample. Change in gene expression was determined by the expression ΔΔCt relative method.
18 compounds were confirmed positive by the more stringent qPCR techniques. […] Included in the tables is the target or common medical use for each compounds.

murine calvaria bone = assay: Anabolic assay using murine calvaria, histology (Study II); type: cell-based, mouse; conditions: calvaria of 4 day old pups, 5-20 μM, day 4 and day 7, 10× microscopy
Procedure: To investigate the biological effects on bone of the compounds from the PCR assays a number of assays were performed using murine calvaria bone as follows. Following procedures similar to those outlined above in Study I, murine calvaria bone was removed from 4 day old pups form CD-1 time pregnant mice from Harlan (15 day gestation at time of arrival). The pups were decapitated with scissors after dipping the pups in 95% ethanol. The scalp was then removed. The heads were placed in a Petri dish with BGJ medium. The calvaria bones were cut using curved scissors to make a cut along the suture of the calvaria bone and the two parts were carefully removed from the brain. The calvaria were trimmed avoiding the suture area. The collected tissue was placed into media (3 bones per group) including BGJ+L-Glutamine with 1% Pen/Strep and 1% BSA. The dish including the bones was placed into a 37° C. and 5% CO2 incubator.
The selected compounds were prepared in a solution of dimethyl sulfoxide (DMSO) to form stock solutions of each compound, with the exception of terfenadine, which was prepared in ethanol. Specifically, a 10 mM stock solution was prepared for PS1, a 25 mM stock solution was prepared for carebastine and a 50 mM stock solution was prepared for ebastine, #6 terfenadine, fexofenadine and astemizole. […]

[3] = test system: human mesenchymal stem cells (MSC); type: cell-based; parameters: key: *: Dose caused cell death; conditions: 10 uM, hMSC, 24 hrs

SMILES	RT PCR Fold increase (BMP-2 [1]) [fold]	BMP-2 Fold Increase/Dose (BMP-2 [2]; 5 μM) [fold]	BMP-2 Fold Increase/Dose (BMP-2 [2]; 10 μM)	BMP-2 fold increases (in words) (BMP-2 [2])	BMP-7 Fold Increase/Dose (BMP-7; 2.5 μM, 24 hour)	BMP-7 fold increases (in words) (BMP-7; 24 hour)	BMP-4 Fold Increase/Dose (BMP-4)	fold induction at 10 µM (BMP2)	fold change (PCR) (BMP-2 [2]; 24 hour, 2.5, 5 and 10 μM) [fold]	activity in bone calvaria assay / effect on BMP-2 gene expression, qualitative histology (murine calvaria bone)	BMP-7 Fold Increase/Dose (BMP-7; 10 μM, 24 hour)	cell death [3]	BMP-7 Fold Increase/Dose (BMP-7; 24 hour, 2.5, 5 and 10 μM tested, no dose stated)
COc1ccc(CCN2CCC(Nc3nc4ccccc4n3Cc3ccc(F)cc3)CC2)cc1 [Astemizole]	156.2	~30	~7 fold	exhibit BMP-2 fold increases	~8/2.5 fold	exhibit BMP-7 fold increases	None	1	–	–	–	–	–
CC(C)(C(=O)O)c1ccc(C(=O)CCCN2CCC(OC(c3ccccc3)c3ccccc3)CC2)cc1 [Carebastine]	–	–	–	–	–	–	–	–	≤ 1	relatively active	–	–	–
CC(C)(C)c1ccc(C(=O)CCCN2CCC(OC(c3ccccc3)c3ccccc3)CC2)cc1 [Ebastine]	–	–	~8/10 μM fold	exhibit BMP-2 fold increases	–	exhibit BMP-7 fold increases	None	–	–	–	~3/10 fold	*Ebastine	–
CN(C)CCC(c1ccccc1)c1ccccn1 (centres unmarked) [Pheniramine]	–	–	~2/10 μM fold	exhibit BMP-2 fold increases	–	–	None	–	–	–	–	–	None
